PMC4949516 (Chemmedchem, 2016)

Legend:
PKA catalytic subunit = biological target: T1, PKA catalytic subunit (Bos taurus, UniProt P00517); experiment: fluorescence polarisation competition with compound […]; type: binding
T1 construct: gene PRKACA; native catalytic subunit purified from bovine heart PKA (P5511) by column chromatography

[1] = biological target: T2, PKA (cAMP-dependent protein kinase), semi-pure tetramer (Bos taurus, UniProt P00517); experiment: fluorescence polarisation saturation binding, one-site fit; details: read-out: binding constant
T2 construct: gene PRKACA; native, semi-pure from bovine heart; whole tetramer of two catalytic and two regulatory subunits; with cAMP-dependent protein kinase type II-alpha regulatory subunit

| IC50 (PKA catalytic subunit) | Kd [1] | SMILES |
| --- | --- | --- |
| 3900 nM | – | CC1CNCCN1S(=O)(=O)c1cccc2cnccc12 (centres unmarked) [H‐7] |
| – | 44 nM | CO[C@@H]1[C@H](N(C)CC(=O)NCCNC(=O)CCC(=O)NCCOCCOCCNC(=S)Nc2ccc(-c3c4ccc(=O)cc-4oc4cc(O)ccc34)c(C(=O)O)c2)C[C@H]2O[C@]1(C)n1c3ccccc3c3c4c(c5c6ccccc6n2c5c31)C(=O)NC4 [compound 8, 2‐(6‐Hydroxy‐3‐oxo‐3H‐xanthen‐9‐yl)‐5‐(3‐(2‐((5R,7R,8R,9S)‐8‐methoxy‐9‐methyl‐16‐oxo‐6,7,8,9,15,16‐hexahydro‐5H,14H‐17‐oxa‐4b,9a,15‐triaza‐5,9‐methanodibenzo[b,h]cyclonona[jkl]‐cyclopenta[e]‐as‐indacen‐7‐yl)‐4,9,12‐trioxo‐16,19‐dioxa‐2,5,8,13‐tetraazahenicosan‐21‐yl)thioureido)benzoic acid] |
